# In publication PMC12984539 (European journal of pharmacology, 2024):
# Test system: μ receptor
# Assay: Hemi-equilibrium simulation of buprenorphine antagonism of DAMGO
# Settings: chosen to match the experimental DAMGO concentration-response curve
smiles,measurement,value
"C[C@@H](NC(=O)[C@@H](N)Cc1ccc(O)cc1)C(=O)NCC(=O)N(C)[C@@H](Cc1ccccc1)C(=O)NCCO [DAMGO, [D-Ala^2, N-MePhe^4, Gly-ol]-enkephalin]",τ (efficacy of the agonist in the system),2.3
